Results reported in patent US9238812B2, “Agent for suppressing expression of dominant mutant gene” (LSIP, LLC, priority 2010, dated 2016).
r = 2'-OH (RNA)

Experiments:
PC3 cells [1] = assay: Cytotoxicity evaluation, LDH released into culture solution; assay type: cell-based, human; conditions: PC3 cells after siRNA electroporation; compared with No siRNA and siControl
Description: (§1) PC3 cells were cultured in the same way as in “Example 2(1)”.
(§2) Electroporation was performed in the same way as in “Example 2(2)”.
(§3) The cells were cultured (cell density: approximately 3×10^4 cells/well) in a 96-well culture plate using the culture solution of the paragraph (1). One day and 4 days later, the cells were subjected to each evaluation experiment. si747/49-3D19 was also subjected to similar evaluation experiments, together with a control, 2 days and 6 days after the cell culture.
In order to evaluate cytotoxicity to PC3 cells after the introduction of si747/49-3D19, the level of LDH released from the cells into a culture solution by cytotoxicity was measured using CytoTox 96 Non-Radioactive Cytotoxicity Assay (Promega Corp.). The experimental procedures followed the protocol included in the product. Absorbance was measured using BenchMark Plus (Bio-Rad Laboratories, Inc.). The negative controls used were the same two controls (No siRNA and siControl) as in the cell growth ability assay.

PC3 cells [2] = assay: Cell death (apoptosis) evaluation, caspase 3/7 activity; assay type: cell-based, human; conditions: culture day 4, compared with No siRNA and siControl
Description: as §1, §2, §3
In order to evaluate the cell death (apoptosis) of PC3 cells after the introduction of si747/49-3D19, caspase 3/7 activity was measured using Caspase-Glo 3/7 Assay (Promega Corp.). The experimental procedures followed the protocol included in the product. Luminescence intensity was measured using Fusion Universal Microplate Analyzer (Perkin Elmer Inc.). The negative controls used were the same two controls (No siRNA and siControl) as in the cell growth ability assay.

[3] = Test on adverse reaction: plasma bilirubin and alkaline phosphatase after intraperitoneal siRNA; assay type: in vivo; conditions: ICR mice, 3 days after administration, vs No siRNA and siControl
Description: Various siRNAs were intraperitoneally administered to ICR mice (male, 10 weeks old). […] These test samples were prepared in the same way as in Example 7 and intraperitoneally administered to mice.
3 days after administration, blood was collected from each mouse. The collected total blood was centrifuged (1200×g, 10 min.) to obtain plasma. Subsequently, total bilirubin, indirect bilirubin, and direct bilirubin levels in the plasma were measured using QuantiChrom™ Bilirubin Assay Kit (BioAssay Systems LLC). Also, alkaline phosphatase level was measured using LabAssay™ ALP (Wako Pure Chemical Industries, Ltd.). The experimental procedures followed the protocol included in each kit.

si747/49-3D19: siRNA against EGFR del(L747-E749)-A750P(G) mutant gene; ss SEQ ID NO 55, as SEQ ID NO 56, 3′ UU added (sense GUCGCUAUCAAGGAGCCAA; antisense UUGGCUCCUUGAUAGCGAC; RNA, 3' rUrU, backbone not given here; listed as Homo sapiens)
cytotoxicity (LDH released from the cells) (PC3 cells [1]): does not induce cell death attributed to cytotoxicity
caspase 3/7 activity (apoptosis) (PC3 cells [2]): did not cause significant change
alkaline phosphatase level in plasma [3]: no significant change
direct bilirubin level in plasma [3]: no significant change
indirect bilirubin level in plasma [3]: no significant change
total bilirubin level in plasma [3]: no significant change
